Among the data in BindingDB's records for doi:10.1016/j.bmcl.2011.07.125 (Pfizer, 2011) are IC50 values, retold here.

The nature of this assay: Antagonist activity at H4R in human eosinophils assessed as inhibition of histamine-induced shape change by GAFS assay.

Turning to `CN[C@@H]1CCN(c2cc(NCC3CC3)nc(N)n2)C1`, the IC50 (commonly the concentration needed to halve the response being measured) is 0.65 nM.
